The values below are quoted from earlier work in US7010431B2, “Method for effecting computer implemented decision-support in the selection of the drug therapy of patients having a viral disease” (F. Hoffman-LaRoche Ltd., priority 2000, dated 2006).

Each structure is given as a SMILES string. Where two headings read alike, the source gives them in different places.

Series [1] relates to HIV reverse transcriptase (RT) substitutions. Details: key: 0 (low resistance); 3 (high resistance).
The subject of series [2] is HIV protease (P) substitutions. On the set-up: key: 0 (low resistance); 3 (high resistance).
[3] abbreviates: substitution 48 V, drug level 100.

With `Nc1ccn([C@@H]2CS[C@H](CO)O2)c(=O)n1` [3TC], the “resistance @ level” value in series [1] (substitution 69SS + 215, drug level 100) was 2.
Consider `Nc1nc(NC2CC2)c2ncn([C@H]3C=C[C@@H](CO)C3)c2n1` [ABC], for which the “resistance @ level” value in series [1] (substitution 184 + two of (41, 67, 70, 210, 215, 219), drug level 10000) is reported as 2.
Regarding `CC(C)CN(C[C@@H](O)[C@H](Cc1ccccc1)NC(=O)O[C@H]1CCOC1)S(=O)(=O)c1ccc(N)cc1` [AMP], in series [2] (substitution 90M/I, drug level 10000), the “resistance @ level” value was 1.
As to `Cc1cn([C@H]2C=C[C@@H](CO)O2)c(=O)[nH]c1=O` [D4T], in series [1] (substitution three of (41, 67, 70, 210, 215, 219), drug level 100), the “resistance @ level” value was 1.
Consider `CC(C)(C)NC(=O)[C@@H]1C[C@@H]2CCCC[C@@H]2CN1C[C@@H](O)[C@H](Cc1ccccc1)NC(=O)[C@H](CC(N)=O)NC(=O)c1ccc2ccccc2n1` [FTV], for which the “resistance @ level” value in series [2] (setting [3]) is recorded as 1.
On to `CC(C)(C)NC(=O)[C@@H]1CN(Cc2cccnc2)CCN1C[C@@H](O)C[C@@H](Cc1ccccc1)C(=O)N[C@H]1c2ccccc2C[C@H]1O` [IND], for which the “resistance @ level” value in series [2] (setting [3]) is on record as 0; in series [2] (substitution 82A/F/T/S, drug level 100), 1.
Turning to `Cc1c(O)cccc1C(=O)N[C@@H](CSc1ccccc1)[C@H](O)CN1C[C@H]2CCCC[C@H]2C[C@H]1C(=O)NC(C)(C)C` [NFV], the “resistance @ level” value in series [2] (substitution 84 + 90 + 46, drug level 100) is recorded as 3.
Take `Cc1ccnc2c1NC(=O)c1cccnc1N2C1CC1` [NVP]: the “resistance @ level” value in series [1] (substitution 236, drug level 100) is 0.
Regarding `Cc1cn([C@H]2C[C@H](N=[N+]=[N-])[C@@H](CO)O2)c(=O)[nH]c1=O` [ZDV], the “resistance @ level” value in series [1] (substitution 215Y/F + 41, drug level 100) is listed as 3.
